Measurements reported in patent US9963457B2, “Crystal of 5-((2-(6-amino)-9H-purin-9-yl)ethyl)amino)pentan-1-o1” (FOREVER CHEER INTERNATIONAL LIMITED, priority 2016, dated 2018).
Values after ≈ are worked out from the molar mass of the structure shown.

Columns and labels:
[1] = tested on: mice treated with yeast polysaccharide; assay: Visceral pain behavior test in chronic visceral pain model; format: in vivo; settings: for Number of visceral pain scores: 28 days after yeast polysaccharide treatment
Experimental: Chronic Visceral Pain Model
(§1) The visceral pain is induced by injecting yeast polysaccharide into the mice colony, and the yeast polysaccharide is derived from Saccharomyces cerevisiae (Sigma), wherein one kind of dextran is resident on the cell wall of the yeast and is identified as a protein-carbohydrate complex. Specifically, the mice were anesthetized after inhaling 1-3% isoflurane, and then a […] suspension of yeast polysaccharide (formulated as a 30 mg/ml solution in physiological saline) was injected into the colon of the mice by using a 24 mm long plastic feed needle within 2 minutes. The control group was injected with 0.1 ml physiological saline. The yeast polysaccharide or physiological saline was injected daily for 3 days. A visceral pain behavior test was carried out according to the Laird procedure. The number of times the mice licking the abdomen within 10 minutes was recorded, excluding other grooming behaviors, stretching of whole body, pressing the abdomen against the floor, and an 1-2-second arched posture. On day 1, 7 and 14 after the injection into the colon, an open field test was carried out from 9 am to 12 pm, and the entire test was a double-blind test. Prior to the behavioral test, the mice were acclimated for 30 minutes in an observation room. The mice were placed at the middle of a new open zone (43.2×43.2×30.5 cm^3) with micro light (<50 lux) and a fan. The movement distance, vertical count, movement count, stereotypic behavior count, and jumping count of animals were recorded within 30 minutes by means of an activity monitoring system equipped with multiple pairs of packaged light beam sets.
(§2) The physiological saline, non-crystalline NB001 (3 mg/kg), the crystal of the present invention (3 mg/kg), and Gabapentin (30 mg/kg) as a positive control were intraperitoneally injected (IP) into the mice treated with yeast polysaccharide respectively. The behaviors of Mice were observed 28 days after the yeast polysaccharide treatment.

[2] = tested on: bone cancer pain model in rat (Walker 256 cells); assay: Paw withdrawal thermal latency (PWL) in bone cancer pain model; format: in vivo, SD rats; settings: twice daily for 3 days, PWL at 2 h after last administration (21d)
Experimental: 1. Animals 50 SD rats (180-220 g), placed under a quiet and warm (22° C.) environment without strong light irradiation, having free access to feed and water.
2. Cell Culture: SD Rat homologous cancer cell strains Walker 256 preserved by the Laboratory Animal Center, Forth Military Medical
University, or a commercially available product can be used. RPMI 1640 culture medium (Gibco Inc. of US, containing 100 U/ml each of 10% fetal bovine serum, penicillin, and streptomycin) was used, and the tumor cells were incubated as suspension cells in a 37° C. incubator under 5% CO2, with the medium replaced every other day, and 2 days for 1 passage. The cells were harvested at the 3rd passage, with a cell concentration of 2×10^5/10 μl.
3. Establishment of bone cancer pain model in rat: the rats were operated at the left knee with a small incision after anesthesia (40 mg/kg of pentobarbital sodium) according to sterile surgical operation procedures, the muscle was stripped off gently and the patellar ligament is cut open to expose the distal femur, with 1 mm syringe needle inserted from the intercondylar fossa vertically into the marrow cavity, with an inserting distance no more than 5 mm to prevent punching. Then a 20 μl micro-injector was inserted into the marrow cavity to slowly inject 10 μl of a suspension containing the Walker 256 cells (2×10^5 cancer cells per 10 μl). The injector was stayed there for a few minutes after the injection, and then the needle pinhole was immediately sealed with sterile bone wax. The tumor cells leaking out of the marrow cavity were killed with 75% ethyl alcohol, and then the rat was sutured under sterile conditions layer by layer. The same operation was performed in the sham operation group, except that only the same volume of sterile saline was injected into the marrow cavity slowly.
6. Drug intervention: On day 18 after the surgical operation, the SD rats of the operation group were randomized into 6 groups, i.e., respectively the model group; non-crystalline NB001 group (20 mg/kg, i.g.); the group of the crystal of the present invention (20 mg/kg, i.g.); morphine (2 mg/kg, i.p.); and gabapentin (100 mg/kg, i.g.). The new crystal form and non-crystalline form of the AC1 inhibitor NB001 were both formulated with sterile saline, and morphine and gabapentin were used as positive control drugs. All drugs were administered twice daily for 3 days, and the pain threshold was measured within 2 hours after the last administration on day 3
7. Assessment of rat pain behavior:
Paw withdrawal thermal latency (PWL): the PWL was measured by using a PL-200 thermal pain stimulator (8V, 50 W, with a strength of 100%). The time period since the time irradiating the middle portion of the planta pedis at the operation side of the rat with light till the time the rat lifted its leg to keep out of the light was TWL. To prevent tissue injury, a cut-off time of 80 s was set, each rat was measured for 3 times with an interval of 5 min, and the results were averaged.

[3] = tested on: mice after neuropathic pain; assay: Elevated plus maze test (EPM), neuropathic pain; format: in vivo
Experimental: (§3) An anxious animal model of the prior art—the elevated plus maze test (EPM) was adopted. The mice were acclimated for 30 minutes in the room prior to the behavior observation. The EPM was composed of two open arms (250 lux) and two closed arms (350 lux) arranged opposite to each other. For each test, an individual animal was placed at the center of the test position and allowed to move freely. The test is carried out for 5 minutes. The number of entering the test position for each arm and the time spent therefore were recorded.
The other two sets of tests were conducted to test the effect of the crystal of the present invention on inhibiting anxiety caused by chronic pain and neuropathic pain.
as §2, with “The EPM test tested the anxiety behavior of mice after the test treatment. The physiological” for “The physiological”

[4] = tested on: mice treated with yeast polysaccharide; assay: Elevated plus maze test (EPM), visceral pain; format: in vivo; settings: for % time in the open arm: Visceral pain
Experimental: as §1, §3
as §2, with “The EPM test tested the anxiety behavior of mice after the test treatment. The physiological” for “The physiological”

[5] = tested on: mice treated with yeast polysaccharide; assay: Bright/dark box test, visceral pain; format: in vivo; settings: for % time in the open arm: Bright/dark box test, Visceral pain
Experimental: as §1
Bright/dark box test: The test procedure was carried out by using an improved method in accordance with the prior art. The device was composed of a rectangular organic glass box (44×8.5×25 cm^3), which is separated into bright and dark compartments with the equal size by using a door. A 60 watt lamp (400 lux) in turn-on state was placed at 30 cm above the box to irradiate the bright compartment. Each animal was first placed in the dark compartment for 20 seconds, and then the door leading to the bright compartment was open. The time each animal stayed in the dark compartment and the time each animal enters the bright compartment within 10 minutes were recorded.
as §2, with “In order to confirm the effect of the crystal of the present invention on inhibiting anxiety, mice were subjected to a bright/dark box test, and the results were as shown in Table 8. The physiological” for “The physiological”

[6] = tested on: mice after neuropathic pain; assay: Bright/dark box test, neuropathic pain; format: in vivo
[7] = target: adenylate cyclase 1 (Homo sapiens, UniProt Q08828); settings: described in WO2007/041863; cited from earlier work
Sequence of adenylate cyclase 1 (Q08828 whole entry): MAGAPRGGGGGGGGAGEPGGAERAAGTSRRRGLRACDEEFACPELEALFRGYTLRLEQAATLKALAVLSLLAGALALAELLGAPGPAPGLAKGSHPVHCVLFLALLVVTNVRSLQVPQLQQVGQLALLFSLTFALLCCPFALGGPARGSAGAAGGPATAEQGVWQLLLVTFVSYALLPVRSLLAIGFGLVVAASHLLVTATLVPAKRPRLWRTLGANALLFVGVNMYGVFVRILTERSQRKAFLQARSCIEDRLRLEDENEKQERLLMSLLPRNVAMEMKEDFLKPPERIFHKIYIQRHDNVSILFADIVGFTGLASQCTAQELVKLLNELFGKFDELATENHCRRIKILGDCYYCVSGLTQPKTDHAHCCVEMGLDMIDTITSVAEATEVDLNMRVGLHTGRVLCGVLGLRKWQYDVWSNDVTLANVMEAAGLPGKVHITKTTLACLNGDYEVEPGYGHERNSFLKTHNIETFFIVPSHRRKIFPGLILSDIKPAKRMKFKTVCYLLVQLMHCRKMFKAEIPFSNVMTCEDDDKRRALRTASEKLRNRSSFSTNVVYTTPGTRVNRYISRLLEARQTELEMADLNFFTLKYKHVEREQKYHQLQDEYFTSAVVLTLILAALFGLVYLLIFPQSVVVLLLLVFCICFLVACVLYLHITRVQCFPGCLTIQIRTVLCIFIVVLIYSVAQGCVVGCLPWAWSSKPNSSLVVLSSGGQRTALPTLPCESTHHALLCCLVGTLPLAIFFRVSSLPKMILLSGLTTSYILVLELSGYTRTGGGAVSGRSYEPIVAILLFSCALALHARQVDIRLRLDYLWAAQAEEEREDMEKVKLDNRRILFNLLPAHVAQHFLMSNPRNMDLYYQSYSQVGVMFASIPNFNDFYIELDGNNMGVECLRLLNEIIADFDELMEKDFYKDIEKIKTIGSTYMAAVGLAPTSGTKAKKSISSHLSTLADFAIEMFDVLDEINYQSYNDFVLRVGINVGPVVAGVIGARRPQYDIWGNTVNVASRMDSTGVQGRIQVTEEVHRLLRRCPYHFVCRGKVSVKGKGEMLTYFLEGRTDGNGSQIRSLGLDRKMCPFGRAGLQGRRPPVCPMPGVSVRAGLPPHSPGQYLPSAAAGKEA

[8] = Approximate solubility of BPCs in organic solvent and mixed solvent; format: physicochemical; settings: organic solvent or mixture, thermodynamic from solid
Experimental: Into 7 mL vials were weighed 2.0 mg of the raw material respectively. Then appropriate amount of methanol, ethanol, isopropyl alcohol, n-butanol, acetonitrile, acetone, ethyl acetate, 2-methyl tetrahydrofuran, tetrahydrofuran, dioxane, n-pentyl alcohol, toluene, isopropyl alcohol+water (with a mass ratio of 3:1), acetonitrile+water (with a mass ratio of 3:1), acetone+water (with a mass ratio of 3:1), and ethanol+water (with a mass ratio of 3:1) were added into respective vials, and the mixture was shaken rapidly to dissolve the compound of the mixture until the solution becomes clear. The approximate solubility of the resultant bulk pharmaceutical chemicals (BPC) in an organic solvent and a mixed solvent was shown in Table 1 below.

For `NCC1(CC(=O)O)CCCCC1` [Gabapentin, gabapentin, reference compound], the “Number of visceral pain scores” value ([1]; 30 mg/kg IP) was 20.7 ± 1.9, the “analgesic effect (PWL) as compared with the model group” value ([2]; 100 mg/kg, i.g.) was “better analgesic effect” and the “% time in the open arm” value ([3]; 30 mg/kg IP) was 9.6 ± 1.5 (7) %. For the same compound, the “% time in the open arm” value ([4]; 30 mg/kg IP) was 8.6 ± 1.5 (8) %, the “% time in the open arm” value ([5]; 30 mg/kg IP) was 8.6 ± 1.5 (8) % and the “% time in the open arm” value ([6]; 30 mg/kg IP) was 9.6 ± 1.5 (7) %.

In the case of `Nc1ncnc2c1ncn2CCNCCCCCO` [NB001, 5-(((2-(6-amino)-9H-purin-9-yl)ethyl)amino)pentan-1-ol], the “inhibition of adenylate cyclase 1” value [7] is given as “capable of selectively inhibiting adenylate cyclase 1”, the “% time in the open arm” value ([3]; 3 mg/kg IP, 3 mg/kg) is given as 10.1 ± 1.8 (8) % and the “% time in the open arm” value ([4]; 3 mg/kg IP, 3 mg/kg) is given as 5.2 ± 0.7 (8) %. For the same compound, the “% time in the open arm” value ([5]; 3 mg/kg IP, 3 mg/kg) was 5.2 ± 0.7 (8) %, the “% time in the open arm” value ([6]; 3 mg/kg IP, 3 mg/kg) was 10.1 ± 1.8 (8) % and the solubility ([8]; 2-methyl tetrahydrofuran) was < 2000 µg/mL. For the same compound, the solubility ([8]; acetone) was < 2000 µg/mL, the solubility ([8]; acetone/water (mass ratio 3:1)) was 100000 to 200000 µg/mL and the solubility ([8]; acetonitrile) was < 2000 µg/mL. For the same compound, the solubility ([8]; acetonitrile/water (mass ratio 3:1)) was 100000 to 200000 µg/mL, the solubility ([8]; dioxane) was < 2000 µg/mL and the solubility ([8]; ethanol) was 7000 to 10000 µg/mL (≈ 26.5 to 37.8 mM). For the same compound, the solubility ([8]; ethanol/water (mass ratio 3:1)) was 100000 to 200000 µg/mL, the solubility ([8]; ethyl acetate) was < 2000 µg/mL and the solubility ([8]; isopropyl alcohol) was ~2000 µg/mL (≈ 7.57 mM). It also gave a solubility ([8]; isopropyl alcohol/water (mass ratio 3:1)) of 70000 to 100000 µg/mL, a solubility ([8]; methanol) of 50000 to 66000 µg/mL (≈ 189 to 250 mM) and a solubility ([8]; n-butanol) of 2200 to 2500 µg/mL (≈ 8.32 to 9.46 mM). For the same compound, the solubility ([8]; n-pentyl alcohol) was 3000 to 4000 µg/mL (≈ 11.3 to 15.1 mM), the solubility ([8]; tetrahydrofuran) was < 2000 µg/mL and the solubility ([8]; toluene) was < 2000 µg/mL.

For `Nc1ncnc2c1ncn2CCNCCCCCO` [Old NB001, 5-(((2-(6-amino)-9H-purin-9-yl)ethyl)amino)pentan-1-ol], the “Number of visceral pain scores” value ([1]; 3 mg/kg IP) was 19.6 ± 1.2, the “therapeutic effect on chronic pain as compared with the positive control group” value ([1]; 3 mg/kg IP, Table 6, listed as non-crystalline NB001) was “significant therapeutic effects” and the “analgesic effect (PWL) as compared with the model group” value ([2]; 20 mg/kg, i.g.) was “better analgesic effect”. The “therapeutic effect in EPM test as compared with the positive control group” value ([4]; 3 mg/kg IP, Table 7, listed as non-crystalline NB001) was “significant therapeutic effects” and the “therapeutic effect in bright/dark box test as compared with the positive control group” value ([5]; 3 mg/kg IP, Table 8, listed as non-crystalline NB001) was “significant therapeutic effects”.

For `CN1CC[C@]23c4c5ccc(O)c4O[C@H]2[C@@H](O)C=C[C@H]3[C@H]1C5` [morphine, reference compound], the “analgesic effect (PWL) as compared with the model group” value ([2]; 2 mg/kg, i.p.) was “better analgesic effect”.
